Experimental findings from patent US6852735B1, “Siastatin B derivatives having a glycosidase inhibitory activity and processes for producing the same” (Zaidan Hojin Biseibutsu Kagaku Kenkyu Kai, priority 1998, dated 2005) are described below.

The test deals with T1, β-D-galactosidase (from Aspergillus niger) (Aspergillus niger, UniProt P29853).
T1 construct: originated from Aspergillus niger; purchased Sigma Company; host or cells: Aspergillus niger
T1 sequence (P29853 20-1006): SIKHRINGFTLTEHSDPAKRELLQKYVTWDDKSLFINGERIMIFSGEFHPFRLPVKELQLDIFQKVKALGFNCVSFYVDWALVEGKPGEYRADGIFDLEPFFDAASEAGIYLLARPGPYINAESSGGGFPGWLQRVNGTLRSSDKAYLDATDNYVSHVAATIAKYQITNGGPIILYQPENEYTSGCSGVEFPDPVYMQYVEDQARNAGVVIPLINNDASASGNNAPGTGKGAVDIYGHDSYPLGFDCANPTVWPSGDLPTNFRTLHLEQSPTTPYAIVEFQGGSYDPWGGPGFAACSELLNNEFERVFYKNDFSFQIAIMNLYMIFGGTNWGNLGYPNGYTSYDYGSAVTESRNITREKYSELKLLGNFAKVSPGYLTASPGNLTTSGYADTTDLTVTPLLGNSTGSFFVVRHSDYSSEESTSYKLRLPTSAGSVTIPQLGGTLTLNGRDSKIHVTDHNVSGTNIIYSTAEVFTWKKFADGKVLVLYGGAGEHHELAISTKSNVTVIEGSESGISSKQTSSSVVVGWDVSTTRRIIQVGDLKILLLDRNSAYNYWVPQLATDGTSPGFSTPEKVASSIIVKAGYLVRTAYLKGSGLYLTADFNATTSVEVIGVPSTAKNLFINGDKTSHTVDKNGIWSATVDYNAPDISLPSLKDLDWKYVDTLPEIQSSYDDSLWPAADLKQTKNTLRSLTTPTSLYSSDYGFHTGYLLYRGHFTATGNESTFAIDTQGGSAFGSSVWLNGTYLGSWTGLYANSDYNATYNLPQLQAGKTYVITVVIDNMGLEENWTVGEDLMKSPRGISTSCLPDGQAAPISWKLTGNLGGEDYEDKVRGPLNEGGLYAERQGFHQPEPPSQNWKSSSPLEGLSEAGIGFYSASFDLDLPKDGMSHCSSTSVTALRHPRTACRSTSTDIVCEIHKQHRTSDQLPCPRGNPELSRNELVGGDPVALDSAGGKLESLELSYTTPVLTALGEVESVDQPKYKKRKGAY
Briefly: β-galactosidase inhibition (Test Example 3). The format is biochemical. Particulars: for inhibition of β-D-galactosidase, in words: summary of Table 1. How it is done: Thus, 0.5 mL of 0.025M citrate-phosphate buffer (pH 4.0), 0.1 mL of the same buffer containing 10 mM p-nitro-phenyl-N-acetyl-α-D-galactosaminide dissolved therein, and 0.1 mL of either water or an aqueous solution containing as the test compound any one of the compounds of the formulae (I), (V) and (X) according to this invention were mixed with each other and pre-incubated in a 96-wells titer plate at 37° C. for 10 minutes. After the completion of the pre-incubation, to the pre-incubated mixture was added 0.01 mL of 0.025 M citrate-phosphate buffer containing α-N-acetyl-galactosaminidase originated from chicken liver (a product of Sigma Company) which was dissolved in said buffer as a glycosidase to be tested. Thereafter, the enzymatic reaction was conducted at 37° C. for 30 minutes.
After the enzymatic reaction, to the reaction solution was added 1.0 mL of 0.3M glycine—sodium hydroxide buffer (pH 10.5), in order to terminate the enzymatic reaction. Thereafter, the absorbance [designated as value (a)] of light at 405 nm of the resulting reaction solution was measured. Concurrently, measurement was made of the absorbance [designated as value (b)] at 405 nm of the reaction solution as obtained in the control test where the enzymatic reaction was conducted without addition of the test compound. Further, measurements were made of the absorbance [designated as values (a′)] and the absorbance [[designated as values (b′)] at 405 nm of the solutions as obtained in the blank test and the control test, respectively, where the enzymatic reaction was not conducted in the assay test. The rate of inhibition to […] was calculated by the equation: [1-(a-a′)/(b-b′)]×100.
The test results obtained are summarized as IC50 value in Table 1 below.
This Test Example is a test example for determining the α-galactosidase or β-galactosidase-inhibitory activity of the compound of the formula (I), (V) or (X) according to this invention.
The evaluation of the α-galactosidase or β-galactosidase-inhibitory activity was conducted according to a modification of the method described in the “Journal of Biological Chemistry”, 240, p.2468 (1965).
Namely, the test was conducted in the same manner as the test for the enzyme-inhibitory activity described in Test Example 1, but with using α-galactosidase or β-galactosidase (products of by Sigma Company) originated from Aspergillus niger, as the glycosidase enzyme, and with using p-nitrophenyl-α-D-galactoside and p-nitrophenyl-β-D-galactoside as the substrate. Furthermore, absorbances of light at 405 nm were measured in the same manner as in Test Example 1. IC50 values of the test compound capable of giving the 50% inhibition to the enzymes were calculated.

For the molecule `O=C(N[C@H]1NC[C@H](CO)[C@H](O)[C@@H]1O)C(F)(F)F` [Formula (I), 6-deacetamido-3-decarboxy-3-hydroxymethyl-6-trifluoroacetamido-siastain B], the IC50 (as a rule, the concentration that inhibits the measured activity by half) was 0.194 µM and the “inhibition of β-D-galactosidase, in words” value is on record as “inhibit strongly”.

In turn, `CC(=O)NC1NCC(CO)C(O)C1O` (stereo not drawn) [Formula (V), 3-decarboxy-4-epi-3-hydroxymethyl-siastain B] came in with an IC50 above 490 µM.

As for `O=C(N[C@H]1NC[C@H](CO)[C@@H](O)[C@@H]1O)C(F)(F)F` [Formula (X), 6-deacetamido-3-decarboxy-4-epi-3-hydroxymethyl-6-trifluoroacetamido-siastain B], the IC50 was 232 µM and the “inhibition of β-D-galactosidase, in words” value is given as “inhibit strongly”.
